Test results reported in patent US10227331B2 (priority 2015, dated 2019).
pIC50: −log10 of the molar value.

Legend:
[1] = tested on: P. aeruginosa expressing IMP-1, efflux− (MB9799); assay: Efflux: concentration of MBL inhibitor which restores susceptibility to imipenem; type: cell-based, Pseudomonas aeruginosa; conditions: imipenem at 2 μg/mL, in the presence of a class A, C, D serine β-lactamase inhibitor closely related to relebactam
Description: (§1) The strain background is Pseudomonas aeruginosa PAO1.

IMP-1 = IMP-1 (Serratia marcescens, UniProt P52699); assay: biochemical; type: biochemical; conditions: CCF2-FA substrate, 2 hours at 25° C; read-out: IMP-1 IC50
Outline: (§2)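 Class B activity is measured in the presence of compound by fluorescence with CCF2-FA after a 2-hour incubation at 25° C. IC50 is taken from a 4-parameter fit of semi-logarithmic dose-response data.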

NDM-1 = NDM-1 (Klebsiella pneumoniae, UniProt C7C422); assay: biochemical; type: biochemical; conditions: CCF2-FA substrate, 2 hours at 25° C; read-out: NDM-1 IC50
Outline: as §2

[2] = tested on: Serratia marcescens expressing IMP-1 (CL5741); type: cell-based; conditions: IMP-1 (CL5741), with imipenem 1 μg/ml, 95% inhibition of bacterial growth
Outline: (§3)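 Clinical strains grown overnight on blood agar, then diluted 1:100 in 1.1× CAMHB and exposed to test compound with imipenem at 1 μg/ml. Incubation was 22–24 h at 35° C; growth was read by absorbance to find the compound concentration restoring imipenem susceptibility.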

[3] = tested on: Klebsiella pneumoniae expressing VIM-1 (IHMA599644); type: cell-based; conditions: VIM-1 (IHMA599644), with imipenem 1 μg/ml, 95% inhibition of bacterial growth
Outline: as §3

[4] = tested on: Escherichia coli expressing NDM-1 (CLB30005, CLB30016); type: cell-based; conditions: NDM-1 (CLB30016), with imipenem 1 μg/ml, 95% inhibition of bacterial growth
Outline: as §3

[5] = tested on: P. aeruginosa expressing IMP-1, efflux+ (MB9798); type: cell-based, Pseudomonas aeruginosa; conditions: for P. aeruginosa expressing IMP-1, efflux+ (MB9798) MITC95: imipenem at 2 μg/mL, in the presence of a class A, C, D serine β-lactamase inhibitor closely related to relebactam; for Efflux ratio: ratio MITC95 PA_9798/MITC95 PA_9799
Description: as §1

VIM-1 = VIM-1 (Pseudomonas aeruginosa (strain ATCC 15692 / DSM 22644 / CIP 104116 / JCM 14847 / LMG 12228 / 1C / PRS 101 / PAO1), UniProt A0A0F7KYQ8); assay: biochemical; conditions: CCF2-FA substrate, 2 hours at 25° C
Outline: as §2

Chain of NDM-1 (C7C422 whole entry, looked up, species assumed): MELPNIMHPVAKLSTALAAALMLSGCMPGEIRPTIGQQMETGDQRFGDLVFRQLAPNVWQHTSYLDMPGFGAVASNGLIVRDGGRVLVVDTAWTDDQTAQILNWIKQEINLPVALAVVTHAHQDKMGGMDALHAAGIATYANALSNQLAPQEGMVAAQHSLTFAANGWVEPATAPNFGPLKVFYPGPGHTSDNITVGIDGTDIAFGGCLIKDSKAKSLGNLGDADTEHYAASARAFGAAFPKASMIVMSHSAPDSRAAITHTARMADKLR
Chain of IMP-1 (P52699 whole entry, looked up, species assumed): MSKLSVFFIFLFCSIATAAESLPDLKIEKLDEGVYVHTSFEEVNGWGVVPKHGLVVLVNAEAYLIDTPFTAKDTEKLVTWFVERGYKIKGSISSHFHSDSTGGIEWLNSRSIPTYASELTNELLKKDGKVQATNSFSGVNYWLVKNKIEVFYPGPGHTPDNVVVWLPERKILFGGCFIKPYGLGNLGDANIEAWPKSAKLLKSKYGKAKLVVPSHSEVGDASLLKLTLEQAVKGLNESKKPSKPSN

Row | SMILES | P. aeruginosa expressing IMP-1, efflux− (MB9799) MITC95 [1] | pIC50 (IMP-1) | pIC50 (NDM-1) | Serratia marcescens MITC95 [2] | Klebsiella pneumoniae MITC95 [3] | Escherichia coli MITC95 [4] | P. aeruginosa expressing IMP-1, efflux+ (MB9798) MITC95 [5] | Efflux ratio [5] | pIC50 (VIM-1)
1 | N[C@H](CO)CS(=O)(=O)c1ccc(-c2cccc3[nH]cnc23)c(-c2nn[nH]n2)c1S(N)(=O)=O [Example 356, (R)-6-((2-amino-3-hydroxypropyl)sulfonyl)-3-(1H-benzo[d]imidazol-4-yl)-2-(2H-tetrazol-5-yl) benzenesulfonamide] | 1.563 µM | 9.30 | 9.57 | 1.563 µM | 3.125 µM | 1.563 µM | 1.563 µM | 1.00 | 9.46
2 | N[C@@H](CO)CS(=O)(=O)c1ccc(-c2cccc3[nH]cnc23)c(-c2nn[nH]n2)c1S(N)(=O)=O [Example 357, (S)-6-((2-amino-3-hydroxypropyl)sulfonyl)-3-(1H-benzo[d]imidazol-4-yl)-2-(2H-tetrazol-5-yl) benzenesulfonamide] | 1.563 µM | 9.53 | 9.79 | 1.563 µM | 3.125 µM | 1.563 µM | 0.7813 µM | 0.50 | 9.60
3 | NC[C@@H](CO)S(=O)(=O)c1ccc(-c2cccc3nc(N)[nH]c23)c(-c2nn[nH]n2)c1S(N)(=O)=O [Example 358, (S)-3-(2-amino-1H-benzo[d]imidazol-7-yl)-6-((1-amino-3-hydroxypropan-2-yl)sulfonyl)-2-(1H-tetrazol-5-yl) benzenesulfonamide] | 0.7813 µM | 8.94 | 9.66 | 0.7813 µM | 1.563 µM | 0.7813 µM | 0.7813 µM | 1.00 | 9.10
4 | C[C@@H](N)CS(=O)(=O)c1ccc(-c2cccc3[nH]cnc23)c(-c2nn[nH]n2)c1S(N)(=O)=O [Example 359] | 0.7813 µM | 9.34 | 9.54 | 1.563 µM | 1.563 µM | 1.563 µM | 1.563 µM | 2.00 | 9.50
5 | NC[C@@H](N)CS(=O)(=O)c1ccc(-c2cccc3[nH]c(N)nc23)c(-c2nn[nH]n2)c1S(N)(=O)=O [Example 360, (R)-3-(2-amino-1H-benzo[d]imidazol-4-yl)-6-((2,3-diaminopropyl)sulfonyl)-2-(2H-tetrazol-5-yl) benzenesulfonamide] | 1.281 µM | 9.26 | 10.18 | 1.391 µM | 1.781 µM | 0.25 µM | 0.8906 µM | 0.70 | 9.54
6 | NC[C@@H](O)CS(=O)(=O)c1ccc(-c2cccc3[nH]cnc23)c(-c2nn[nH]n2)c1S(N)(=O)=O [Example 361, (R)-6-((3-amino-2-hydroxypropyl)sulfonyl)-3-(1H-benzo[d]imidazol-4-yl)-2-(2H-tetrazol-5-yl) benzenesulfonamide] | 0.7813 µM | 9.76 | 10.04 | 0.7813 µM | 1.563 µM | 0.7813 µM | 0.7813 µM | 1.00 | 9.60
7 | Cn1c(N)nc2c(-c3ccc(S(=O)(=O)C[C@H](O)CN)c(S(N)(=O)=O)c3-c3nn[nH]n3)cccc21 [Example 362, (R)-3-(2-amino-1-methyl-1H-benzo[d]imidazol-4-yl)-6-((3-amino-2-hydroxypropyl)sulfonyl)-2-(2H-tetrazol-5-yl) benzenesulfonamide] | 0.7813 µM | 9.39 | 9.53 | 0.7813 µM | 1.563 µM | 0.3906 µM | 0.7813 µM | 1.00 | 9.22
8 | Cn1c(N)nc2c(-c3ccc(S(=O)(=O)C[C@@H](O)CN)c(S(N)(=O)=O)c3-c3nn[nH]n3)cccc21 [Example 363, (S)-3-(2-amino-1-methyl-1H-benzo[d]imidazol-4-yl)-6-((3-amino-2-hydroxypropyl)sulfonyl)-2-(2H-tetrazol-5-yl) benzenesulfonamide] | 0.7813 µM | 9.37 | 9.56 | 0.7813 µM | 1.563 µM | 0.3906 µM | 0.7813 µM | 1.00 | 9.45
9 | NC[C@@H](O)CS(=O)(=O)c1ccc(-c2ccc(N)nc2)c(-c2nn[nH]n2)c1S(N)(=O)=O [Example 364, (R)-6-((3-amino-2-hydroxypropyl)sulfonyl)-3-(6-aminopyridin-3-yl)-2-(2H-tetrazol-5-yl) benzenesulfonamide] | 0.7813 µM | 9.31 | 9.10 | 0.9766 µM | 1.563 µM | 0.3418 µM | 0.7813 µM | 1.00 | 9.06
10 | NC[C@H](O)CS(=O)(=O)c1ccc(-c2ccc(N)nc2)c(-c2nn[nH]n2)c1S(N)(=O)=O [Example 365, (S)-6-((3-amino-2-hydroxypropyl)sulfonyl)-3-(6-aminopyridin-3-yl)-2-(2H-tetrazol-5-yl) benzenesulfonamide] | 0.7813 µM | 8.92 | 8.82 | 0.7813 µM | 2.344 µM | 0.293 µM | 1.172 µM | 1.50 | 9.20
11 | NC[C@H](O)CS(=O)(=O)c1ccc(-c2cccc(-c3c[nH]c(N)n3)c2)c(-c2nn[nH]n2)c1S(N)(=O)=O [Example 366, (S)-3'-(2-amino-1H-imidazol-4-yl)-4-((3-amino-2-hydroxypropyl)sulfonyl)-2-(2H-tetrazol-5-yl)-[1,1'-biphenyl]-3-sulfonamide] | 1.563 µM | 8.74 | 9.21 | 1.563 µM | 1.563 µM | 0.7813 µM | 3.125 µM | 2.00 | 8.93
12 | NCc1nc2c(-c3ccc(S(=O)(=O)C[C@@H](O)CN)c(S(N)(=O)=O)c3-c3nn[nH]n3)cccc2[nH]1 [Example 369, (S)-6-((3-amino-2-hydroxypropyl)sulfonyl)-3-(2-(aminomethyl)-1H-benzo[d]imidazol-4-yl)-2-(2H-tetrazol-5-yl) benzenesulfonamide] | 0.7813 µM | 8.45 | 9.01 | 0.7813 µM | 1.563 µM | 0.7813 µM | 0.7813 µM | 1.00 | 9.40
13 | NCc1nc2c(-c3ccc(S(=O)(=O)C[C@H](O)CN)c(S(N)(=O)=O)c3-c3nn[nH]n3)cccc2[nH]1 [Example 370, (R)-6-((3-amino-2-hydroxypropyl)sulfonyl)-3-(2-(aminomethyl)-1H-benzo[d]imidazol-4-yl)-2-(2H-tetrazol-5-yl) benzenesulfonamide] | 0.7813 µM | 8.90 | 9.44 | 0.7813 µM | 1.563 µM | 0.7813 µM | 0.7813 µM | 1.00 | 9.41
